Measured values as given in patent publication US20240360134A1, “PYRAZOLOPYRIMIDINES AND THEIR USES AS PDGFR INHIBITORS” (priority 2021, published 2024).
Where two headings read alike, the source gives them in different places.

Experiments:
[1] = molecular target: PDGFRβ (Rattus norvegicus (Rat), UniProt Q05030); assay: PDGFRβ Cellular Assay (PDGFRb P-Y751 HTRF, PDGF-BB stimulated A10 cells); type: cell-based
Method in brief: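 Rat A10 cells plated overnight were treated with compound for 3 h, stimulated with rat PDGF-BB (working stock 100 ng/mL in 10% FBS medium) for 10 min, then lysed.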

[2] = molecular target: His6-TEV-PDGFRβ (557-1016) (Homo sapiens (Human), UniProt P09619); assay: PDGFRβ HTRF Assay; type: biochemical
[3] = molecular target: Tb-labeled inactive PDGFRβ (Homo sapiens (Human), UniProt P09619); assay: biochemical; type: binding
[4] = molecular target: VEGFR2, unphosphorylated (Homo sapiens (Human), UniProt P35968); assay: VEGFR ADP GLO assay; type: biochemical; conditions: 5 nM VEGFR2, 1.2 mM ATP, 1 mg/mL Srctide, 180 min
Method in brief: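 Luminescent ADP detection after a 180-min room-temperature reaction of srctide plus ATP (2 mg/mL and 2.4 mM in 2× mix) in pH 7.5 HEPES buffer with DTT, Pluronic and ovalbumin. Compounds, 11 points from 10 µM, first pre-incubated 30 min with enzyme (2× mix 10 nM). IC50s fitted after scaling between DMSO and 1 µM TAK-593 controls.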

[5] = A10 cells, 3 hours compound, 15 ng/mL PDGFbb for 10 minutes, read-out: PDGFR Cellular IC50
[6] = 800 μM ATP, 0.5 μM TK-substrate biotin peptide, 30 min pre-incubation, 3 hours reaction, read-out: PDGFR HTRF IC50

Sequence of VEGFR2, unphosphorylated (P35968 whole entry, looked up): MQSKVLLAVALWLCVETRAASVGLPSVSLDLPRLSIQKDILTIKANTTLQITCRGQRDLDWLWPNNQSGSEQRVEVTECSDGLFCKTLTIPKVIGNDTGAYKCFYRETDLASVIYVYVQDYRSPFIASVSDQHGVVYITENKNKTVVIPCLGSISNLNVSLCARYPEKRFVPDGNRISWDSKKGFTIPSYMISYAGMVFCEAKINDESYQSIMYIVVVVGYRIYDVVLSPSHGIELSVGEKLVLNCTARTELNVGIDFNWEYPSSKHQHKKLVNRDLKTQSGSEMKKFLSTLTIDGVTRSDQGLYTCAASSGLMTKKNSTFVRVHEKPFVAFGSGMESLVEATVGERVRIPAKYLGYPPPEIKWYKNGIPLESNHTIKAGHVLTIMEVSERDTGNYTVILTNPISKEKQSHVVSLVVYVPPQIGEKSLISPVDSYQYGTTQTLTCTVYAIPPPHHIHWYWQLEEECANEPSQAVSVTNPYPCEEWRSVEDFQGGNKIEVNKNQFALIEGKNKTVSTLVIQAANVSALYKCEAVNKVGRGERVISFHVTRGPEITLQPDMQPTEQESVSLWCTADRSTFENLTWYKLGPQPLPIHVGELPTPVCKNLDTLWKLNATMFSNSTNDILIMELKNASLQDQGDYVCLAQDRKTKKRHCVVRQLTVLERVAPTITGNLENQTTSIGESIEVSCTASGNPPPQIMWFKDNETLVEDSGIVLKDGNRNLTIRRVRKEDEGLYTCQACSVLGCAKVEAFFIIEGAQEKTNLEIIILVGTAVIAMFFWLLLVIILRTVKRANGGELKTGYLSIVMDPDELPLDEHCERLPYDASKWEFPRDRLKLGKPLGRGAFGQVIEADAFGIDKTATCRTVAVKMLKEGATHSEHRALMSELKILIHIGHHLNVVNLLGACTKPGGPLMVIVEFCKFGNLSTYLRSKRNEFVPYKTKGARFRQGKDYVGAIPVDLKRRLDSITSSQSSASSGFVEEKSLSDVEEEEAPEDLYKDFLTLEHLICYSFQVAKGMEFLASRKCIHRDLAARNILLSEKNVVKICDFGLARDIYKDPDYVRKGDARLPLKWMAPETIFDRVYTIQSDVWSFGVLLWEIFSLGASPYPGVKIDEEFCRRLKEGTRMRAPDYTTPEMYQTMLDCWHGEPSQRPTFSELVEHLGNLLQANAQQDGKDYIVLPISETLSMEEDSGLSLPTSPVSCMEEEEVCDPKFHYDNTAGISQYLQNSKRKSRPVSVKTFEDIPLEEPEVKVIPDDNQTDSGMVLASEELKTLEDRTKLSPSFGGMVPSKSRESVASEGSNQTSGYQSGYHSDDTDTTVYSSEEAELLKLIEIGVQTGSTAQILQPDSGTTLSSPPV
Sequence of PDGFRβ (Q05030 whole entry, looked up): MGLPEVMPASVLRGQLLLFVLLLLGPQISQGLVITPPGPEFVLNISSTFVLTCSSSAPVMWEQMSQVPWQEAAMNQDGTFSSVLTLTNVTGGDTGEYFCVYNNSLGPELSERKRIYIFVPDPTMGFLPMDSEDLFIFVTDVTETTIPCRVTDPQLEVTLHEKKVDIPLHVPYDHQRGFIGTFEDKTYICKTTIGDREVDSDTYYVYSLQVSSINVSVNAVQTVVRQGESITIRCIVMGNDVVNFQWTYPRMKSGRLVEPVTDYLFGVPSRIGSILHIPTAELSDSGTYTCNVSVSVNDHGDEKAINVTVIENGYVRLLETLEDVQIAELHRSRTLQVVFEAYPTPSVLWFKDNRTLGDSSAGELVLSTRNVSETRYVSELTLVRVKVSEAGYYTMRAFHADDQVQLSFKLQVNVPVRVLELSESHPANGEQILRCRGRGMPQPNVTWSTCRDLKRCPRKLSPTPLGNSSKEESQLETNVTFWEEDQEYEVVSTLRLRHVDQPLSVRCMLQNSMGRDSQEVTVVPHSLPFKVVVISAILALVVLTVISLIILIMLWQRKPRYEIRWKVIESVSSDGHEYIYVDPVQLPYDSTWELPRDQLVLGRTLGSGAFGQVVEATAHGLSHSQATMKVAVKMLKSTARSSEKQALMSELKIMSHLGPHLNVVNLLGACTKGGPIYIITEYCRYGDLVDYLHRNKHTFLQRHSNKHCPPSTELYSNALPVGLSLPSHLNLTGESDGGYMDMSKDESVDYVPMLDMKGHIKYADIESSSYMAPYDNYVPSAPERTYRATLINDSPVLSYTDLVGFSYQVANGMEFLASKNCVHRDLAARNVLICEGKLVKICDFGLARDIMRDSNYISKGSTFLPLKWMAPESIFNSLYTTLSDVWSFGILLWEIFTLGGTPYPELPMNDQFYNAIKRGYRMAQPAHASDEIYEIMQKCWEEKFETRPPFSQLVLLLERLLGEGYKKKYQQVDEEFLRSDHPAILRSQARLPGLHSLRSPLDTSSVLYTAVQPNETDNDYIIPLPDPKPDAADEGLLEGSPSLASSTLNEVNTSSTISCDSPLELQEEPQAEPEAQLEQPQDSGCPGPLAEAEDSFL
Sequence of Tb-labeled inactive PDGFRβ (P09619 whole entry, looked up): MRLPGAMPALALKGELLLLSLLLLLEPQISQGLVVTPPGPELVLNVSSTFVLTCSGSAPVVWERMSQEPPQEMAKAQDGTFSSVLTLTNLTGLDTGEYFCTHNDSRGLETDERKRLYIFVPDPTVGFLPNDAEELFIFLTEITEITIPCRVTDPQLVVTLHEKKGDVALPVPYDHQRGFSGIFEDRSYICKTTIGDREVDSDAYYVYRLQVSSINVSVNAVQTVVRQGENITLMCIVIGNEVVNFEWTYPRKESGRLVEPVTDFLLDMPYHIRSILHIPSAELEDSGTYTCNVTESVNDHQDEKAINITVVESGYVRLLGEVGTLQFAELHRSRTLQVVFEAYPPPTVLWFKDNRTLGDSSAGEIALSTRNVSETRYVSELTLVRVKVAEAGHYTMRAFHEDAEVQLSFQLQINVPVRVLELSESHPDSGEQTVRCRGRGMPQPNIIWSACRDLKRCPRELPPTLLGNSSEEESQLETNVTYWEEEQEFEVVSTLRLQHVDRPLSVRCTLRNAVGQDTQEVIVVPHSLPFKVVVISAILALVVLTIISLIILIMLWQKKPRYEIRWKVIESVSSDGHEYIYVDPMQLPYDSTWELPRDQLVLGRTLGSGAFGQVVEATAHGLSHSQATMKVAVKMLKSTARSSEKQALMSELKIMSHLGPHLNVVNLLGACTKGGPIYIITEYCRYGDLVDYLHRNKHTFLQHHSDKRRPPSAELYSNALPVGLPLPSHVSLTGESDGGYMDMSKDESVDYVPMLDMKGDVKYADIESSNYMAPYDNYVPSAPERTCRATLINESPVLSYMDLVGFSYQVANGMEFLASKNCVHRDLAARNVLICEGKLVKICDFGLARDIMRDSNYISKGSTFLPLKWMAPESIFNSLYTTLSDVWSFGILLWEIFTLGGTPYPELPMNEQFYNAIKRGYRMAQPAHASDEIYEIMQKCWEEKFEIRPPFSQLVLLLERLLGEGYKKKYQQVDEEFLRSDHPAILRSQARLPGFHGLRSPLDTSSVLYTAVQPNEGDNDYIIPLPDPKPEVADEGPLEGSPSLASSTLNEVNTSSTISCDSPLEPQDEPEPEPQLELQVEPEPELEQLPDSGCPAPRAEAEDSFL
Sequence of His6-TEV-PDGFRβ (557-1016) (P09619 whole entry, looked up): as above

| SMILES | IC50 [1, 5] [nM] | IC50 [2, 6] [nM] | IC50 ([3]; read-out: PDGFR Lantha IC50) [nM] | IC50 [4] [nM] | IC50 [1] [nM] | IC50 [2] [nM] | IC50 [3] [nM] |
| --- | --- | --- | --- | --- | --- | --- | --- |
| CC(=O)Nc1cncc(Nc2ncc3c(Nc4cc(C(=O)NCCN5CCCC5(C)C)cnc4C)nn(C)c3n2)c1 [Example 99, 5-((6-((5-acetamidopyridin-3-yl)amino)-1-methyl-1H-pyrazolo[3,4-d]pyrimidin-3-yl)amino)-N-(2-(2,2-dimethylpyrrolidin-1-yl)ethyl)-6-methylnicotinamide] | 137 | 0.66 | 5.9 | > 7500 |  |  |  |
| CC(=O)Nc1cc(Nc2ncc3c(Nc4cc(C(=O)NCCN5CCCC5(C)C)cnc4C)nn(C)c3n2)ccn1 [Example 100, 5-((6-((2-acetamidopyridin-4-yl)amino)-1-methyl-1H-pyrazolo[3,4-d]pyrimidin-3-yl)amino)-N-(2-(2,2-dimethylpyrrolidin-1-yl)ethyl)-6-methylnicotinamide] | 93.1 | 0.39 | 2.8 | 5420 |  |  |  |
| Cc1ncc(C(=O)NCCN2CCCC2(C)C)cc1Nc1nn(C)c2nc(Nc3ccnc(N4CCOCC4)c3)ncc12 [Example 101, N-(2-(2,2-dimethylpyrrolidin-1-yl)ethyl)-6-methyl-5-((1-methyl-6-((2-morpholinopyridin-4-yl)amino)-1H-pyrazolo[3,4-d]pyrimidin-3-yl)amino)nicotinamide] | 15.5 | 0.38 | 2.2 | > 7500 |  |  |  |
| Cc1ncc(C(=O)NCCN2CCCC2(C)C)cc1Nc1nn(C)c2nc(Nc3ccc(N4CCOCC4)nc3)ncc12 [Example 102, N-(2-(2,2-dimethylpyrrolidin-1-yl)ethyl)-6-methyl-5-((1-methyl-6-((6-morpholinopyridin-3-yl)amino)-1H-pyrazolo[3,4-d]pyrimidin-3-yl)amino)nicotinamide] | 7.6 | 0.37 | 3.8 | > 7500 |  |  |  |
| Cc1ncc(C(=O)NCCN2CCCC2(C)C)cc1Nc1nn(C)c2nc(Nc3ccnc(N4CCN(CCO)CC4)c3)ncc12 [Example 103, N-(2-(2,2-dimethylpyrrolidin-1-yl)ethyl)-5-((6-((2-(4-(2-hydroxyethyl)piperazin-1-yl)pyridin-4-yl)amino)-1-methyl-1H-pyrazolo[3,4-d]pyrimidin-3-yl)amino)-6-methylnicotinamide] | 443 | 0.55 | 4.8 | > 7500 |  |  |  |
| Cc1ncc(C(=O)NCCC2CCCCC2)cc1Nc1nn(C)c2nc(Nc3ccc(CC(=O)O)cc3)ncc12 [Example 104, 2-(4-((3-((5-((2-cyclohexylethyl)carbamoyl)-2-methylpyridin-3-yl)amino)-1-methyl-1H-pyrazolo[3,4-d]pyrimidin-6-yl)amino)phenyl)acetic acid] | 2360 | 0.44 | 2.4 | 77.2 |  |  |  |
| Cc1ncc(C(=O)NCCC2CCCCC2)cc1Nc1nn(C)c2nc(Nc3ccc(CC#N)nc3)ncc12 [Example 105, 5-((6-((6-(cyanomethyl)pyridin-3-yl)amino)-1-methyl-1H-pyrazolo[3,4-d]pyrimidin-3-yl)amino)-N-(2-cyclohexylethyl)-6-methylnicotinamide] | 9.7 | 0.59 | 2.7 | 3360 |  |  |  |
| Cc1ncc(C(=O)NCCC2CCCCC2)cc1Nc1nn(C)c2nc(Nc3ccc(CC(=O)O)nc3)ncc12 [Example 106, 2-(5-((3-((5-((2-cyclohexylethyl)carbamoyl)-2-methylpyridin-3-yl)amino)-1-methyl-1H-pyrazolo[3,4-d]pyrimidin-6-yl)amino)pyridin-2-yl)acetic acid] |  |  |  | 915 | 12.6 | 0.76 | 3.6 |
| Cc1ncc(C(=O)NCCC2CCCCC2)cc1Nc1nn(C)c2nc(Nc3cncc(CC(=O)O)c3)ncc12 [Example 107, 2-(5-((3-((5-((2-cyclohexylethyl)carbamoyl)-2-methylpyridin-3-yl)amino)-1-methyl-1H-pyrazolo[3,4-d]pyrimidin-6-yl)amino)pyridin-3-yl)acetic acid] | > 2000 | 0.55 | 2.8 | 11 |  |  |  |
| Cc1ncc(C(=O)NCCC2CCCCC2)cc1Nc1nn(C)c2nc(NCCC3CCCCC3)ncc12 [Example 108, N-(2-cyclohexylethyl)-5-((6-((2-cyclohexylethyl)amino)-1-methyl-1H-pyrazolo[3,4-d]pyrimidin-3-yl)amino)-6-methylnicotinamide] | 2270 | 172 | > 3000 | > 7500 |  |  |  |
| Cc1ncc(C(=O)NCCC2CCCCC2)cc1Nc1nn(C)c2nc(Nc3ccc(N4CCNCC4)nc3)ncc12 [Example 109, N-(2-cyclohexylethyl)-6-methyl-5-((1-methyl-6-((6-(piperazin-1-yl)pyridin-3-yl)amino)-1H-pyrazolo[3,4-d]pyrimidin-3-yl)amino)nicotinamide] | 127 | 0.78 | 4 | 167 |  |  |  |
| Cc1ncc(C(=O)NCCC2CCCCC2)cc1Nc1nn(C)c2nc(Nc3ccnc(N4CCN(CCO)CC4)c3)ncc12 [Example 110, N-(2-cyclohexylethyl)-5-((6-((2-(4-(2-hydroxyethyl)piperazin-1-yl)pyridin-4-yl)amino)-1-methyl-1H-pyrazolo[3,4-d]pyrimidin-3-yl)amino)-6-methylnicotinamide] | 108 | 0.77 | 3.9 | 143 |  |  |  |
| Cc1ncc(C(=O)NCCN2CCCC2(C)C)cc1Nc1nn(C)c2nc(Nc3ccnc(N4CCC(CCO)CC4)c3)ncc12 [Example 111, N-(2-(2,2-dimethylpyrrolidin-1-yl)ethyl)-5-((6-((2-(4-(2-hydroxyethyl)piperidin-1-yl)pyridin-4-yl)amino)-1-methyl-1H-pyrazolo[3,4-d]pyrimidin-3-yl)amino)-6-methylnicotinamide] | 106 | 0.51 | 5.1 | > 7500 |  |  |  |
| Cc1ncc(C(=O)NCCN2C[C@H](C)O[C@@H](C)C2)cc1Nc1nn(C)c2nc(Nc3ccnc(N4CCC(CCO)CC4)c3)ncc12 [Example 112, N-(2-((2S,6S)-2,6-dimethylmorpholino)ethyl)-5-((6-((2-(4-(2-hydroxyethyl)piperidin-1-yl)pyridin-4-yl)amino)-1-methyl-1H-pyrazolo[3,4-d]pyrimidin-3-yl)amino)-6-methylnicotinamide] | 84.4 | 0.57 | 4.5 | > 7500 |  |  |  |
| CC[C@@H]1CN(CCNC(=O)c2cnc(C)c(Nc3nn(C)c4nc(Nc5ccnc(N6CCC(CCO)CC6)c5)ncc34)c2)CCO1 [Example 113, (R)—N-(2-(2-ethylmorpholino)ethyl)-5-((6-((2-(4-(2-hydroxyethyl)piperidin-1-yl)pyridin-4-yl)amino)-1-methyl-1H-pyrazolo[3,4-d]pyrimidin-3-yl)amino)-6-methylnicotinamide] | 116 | 0.94 | 6.8 | > 7500 |  |  |  |
| Cc1ncc(C(=O)NCCN2C[C@H](C)O[C@@H](C)C2)cc1Nc1nn(C)c2nc(Nc3cncnc3)ncc12 [Example 114, N-(2-((2S,6S)-2,6-dimethylmorpholino)ethyl)-6-methyl-5-((1-methyl-6-(pyrimidin-5-ylamino)-1H-pyrazolo[3,4-d]pyrimidin-3-yl)amino)nicotinamide] | 72.9 | 0.88 | 9.1 | > 7500 |  |  |  |
| Cc1ncc(C(=O)NCCN2C[C@H](C)O[C@@H](C)C2)cc1Nc1nn(C)c2nc(Nc3ccncc3)ncc12 [Example 115, N-(2-((2S,6S)-2,6-dimethylmorpholino)ethyl)-6-methyl-5-((1-methyl-6-(pyridin-4-ylamino)-1H-pyrazolo[3,4-d]pyrimidin-3-yl)amino)nicotinamide] | 20.6 | 0.48 | 3.9 | > 7500 |  |  |  |
| Cc1ncc(NC(=O)C2(C(=O)N3CCN(C)CC3)CC2)cc1Nc1nn(C)c2nc(Nc3cnn(C)c3)ncc12 [Example 116, N-(6-methyl-5-((1-methyl-6-((1-methyl-1H-pyrazol-4-yl)amino)-1H-pyrazolo[3,4-d]pyrimidin-3-yl)amino)pyridin-3-yl)-1-(4-methylpiperazine-1-carbonyl)cyclopropanecarboxamide] | 721 | 2.63 | 59.4 | > 7500 |  |  |  |
| Cc1ncc(NC(=O)C2(C(=O)N3CCNCC3)CC2)cc1Nc1nn(C)c2nc(Nc3cnn(C)c3)ncc12 [Example 117, N-(6-methyl-5-((1-methyl-6-((1-methyl-1H-pyrazol-4-yl)amino)-1H-pyrazolo[3,4-d]pyrimidin-3-yl)amino)pyridin-3-yl)-1-(piperazine-1-carbonyl) cyclopropanecarboxamide] | > 2000 | 4.28 | 147 | > 7500 |  |  |  |
| Cc1ccc(C(=O)NCCN2CCC(F)(F)CC2)cc1Nc1nn(C)c2nc(Nc3cnn(C)c3)ncc12 [Example 118, N-(2-(4,4-difluoropiperidin-1-yl)ethyl)-4-methyl-3-((1-methyl-6-((1-methyl-1H-pyrazol-4-yl)amino)-1H-pyrazolo[3,4-d]pyrimidin-3-yl)amino)benzamide] | 5.4 | 0.29 | 1.8 | 76 |  |  |  |
